EC50 data for 26 compounds are collected here from US9908868B2, “Isoindolinone compounds as GPR119 modulators for the treatment of diabetes, obesity, dyslipidemia and related disorders” (SANOFI, priority 2014, dated 2018).

The target of the experiment is T1, human GPR119 (Homo sapiens, UniProt Q8TDV5).
T1 construct: expressed in transfected cells
T1 sequence (Q8TDV5 1-335): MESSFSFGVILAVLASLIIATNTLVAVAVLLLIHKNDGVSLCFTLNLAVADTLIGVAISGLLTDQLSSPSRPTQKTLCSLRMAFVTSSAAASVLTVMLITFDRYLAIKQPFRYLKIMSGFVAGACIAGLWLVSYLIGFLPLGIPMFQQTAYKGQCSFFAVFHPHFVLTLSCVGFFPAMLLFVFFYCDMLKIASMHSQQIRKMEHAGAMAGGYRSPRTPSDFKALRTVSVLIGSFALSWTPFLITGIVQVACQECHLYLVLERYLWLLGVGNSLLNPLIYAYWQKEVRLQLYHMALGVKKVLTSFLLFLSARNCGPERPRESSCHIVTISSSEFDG
Put plainly: Functional cellular assay measuring GPR119-mediated cAMP release (HTRF) in HEK-293 cells stably expressing recombinant human GPR119. In kind it is cell-based. The conditions noted are these: cAMP response, cell line expressing human GPR119, 30 minutes at room temperature. In outline: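 HEK-293 cells stably expressing recombinant human GPR119, suspended at 400000 cells/mL in HBSS/20 mM HEPES/0.1% BSA/2 mM IBMX, exposed to compound for 30 minutes at room temperature. cAMP detected by HTRF (665/620 nm ratio) after 1 h with reagents in lysis buffer. EC50 taken as concentration giving 50% of maximal activation.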

Usually EC50 stands for the midpoint of the concentration-response curve. As for `CCOc1ccc(O[C@@H]2CCN(c3cc(F)c4c(c3)C(=O)N(CC(=O)NCCO)C4)C2=O)cn1` [Example 4-15, 2-[6-[(3R)-3-[(6-ethoxy-3-pyridyl)oxy]-2-oxo-pyrrolidin-1-yl]-4-fluoro-1-oxo-isoindolin-2-yl]-N-(2-hydroxyethyl)acetamide], the EC50 amounted to 547 nM. Turning to `CCOc1ccc(O[C@@H]2CCN(c3cc(F)c4c(c3)C(=O)N(CC(N)=O)C4)C2=O)cn1` [Example 4-16, 2-[6-[(3R)-3-[(6-ethoxy-3-pyridyl)oxy]-2-oxo-pyrrolidin-1-yl]-4-fluoro-1-oxo-isoindolin-2-yl]acetamide], the concentration for a half-maximal effect (EC50) was found to be 271 nM.

With `CCOc1ccc(O[C@@H]2CCN(c3cc(F)c4c(c3)C(=O)N(CC(=O)N3CCCC3)C4)C2=O)cn1` [Example 4-17, 6-[(3R)-3-[(6-ethoxy-3-pyridyl)oxy]-2-oxo-pyrrolidin-1-yl]-4-fluoro-2-(2-oxo-2-pyrrolidin-1-yl-ethyl)isoindolin-1-one], the EC50 turned out to be 191 nM. Then `CCOc1ccc(O[C@@H]2CCN(c3cc(F)c4c(c3)C(=O)N(CC(=O)NCCOC)C4)C2=O)cn1` [Example 4-18, 2-[6-[(3R)-3-[(6-ethoxy-3-pyridyl)oxy]-2-oxo-pyrrolidin-1-yl]-4-fluoro-1-oxo-isoindolin-2-yl]-N-(2-methoxyethyl)acetamide], with 381 nM; and `CCOc1ccc(O[C@@H]2CCN(c3cc(F)c4c(c3)C(=O)N(CC(=O)N3CCC(O)CC3)C4)C2=O)cn1` [Example 4-19, 6-[(3R)-3-[(6-ethoxy-3-pyridyl)oxy]-2-oxo-pyrrolidin-1-yl]-4-fluoro-2-[2-(4-hydroxy-1-piperidyl)-2-oxo-ethyl]isoindolin-1-one], with 297 nM; and `COCCNC(=O)CN1Cc2c(F)cc(N3CC[C@@H](Oc4ccc(OCCC5CC5)nc4)C3=O)cc2C1=O` [Example 4-20, 2-[6-[(3R)-3-[[6-(2-cyclopropylethoxy)-3-pyridyl]oxy]-2-oxo-pyrrolidin-1-yl]-4-fluoro-1-oxo-isoindolin-2-yl]-N-(2-methoxyethyl)acetamide], with 62 nM.

With `CCOc1ccc(O[C@@H]2CCN(c3cc(F)c4c(c3)C(=O)N(CC(=O)N(C)C)C4)C2=O)cn1` [Example 4-21, 2-[6-[(3R)-3-[(6-ethoxy-3-pyridyl)oxy]-2-oxo-pyrrolidin-1-yl]-4-fluoro-1-oxo-isoindolin-2-yl]-N,N-dimethyl-acetamide], the EC50 turned out to be 222 nM. With `O=C(CN1Cc2c(F)cc(N3CC[C@@H](Oc4ccc(OCC5CC5)nc4)C3=O)cc2C1=O)N1CCC(O)CC1` [Example 4-22, 6-[(3R)-3-[[6-(cyclopropylmethoxy)-3-pyridyl]oxy]-2-oxo-pyrrolidin-1-yl]-4-fluoro-2-[2-(4-hydroxy-1-piperidyl)-2-oxo-ethyl]isoindolin-1-one], the concentration for a half-maximal effect (EC50) amounted to 88 nM. In the case of `COCCNC(=O)CN1Cc2c(F)cc(N3CC[C@@H](Oc4ccc(OCC5CC5)nc4)C3=O)cc2C1=O` [Example 4-23, 2-[6-[(3R)-3-[[6-(cyclopropylmethoxy)-3-pyridyl]oxy]-2-oxo-pyrrolidin-1-yl]-4-fluoro-1-oxo-isoindolin-2-yl]-N-(2-methoxyethyl)acetamide], the EC50 is 157 nM. Turning to `O=C(CN1Cc2c(F)cc(N3CC[C@@H](Oc4ccc(OCC5CC5)nc4)C3=O)cc2C1=O)NCCO` [Example 4-24, 2-[6-[(3R)-3-[[6-(cyclopropylmethoxy)-3-pyridyl]oxy]-2-oxo-pyrrolidin-1-yl]-4-fluoro-1-oxo-isoindolin-2-yl]-N-(2-hydroxyethyl)acetamide], the EC50 amounted to 266 nM. Consider `CN(C)C(=O)CN1Cc2c(F)cc(N3CC[C@@H](Oc4ccc(OCC5CC5)nc4)C3=O)cc2C1=O` [Example 4-25, 2-[6-[(3R)-3-[[6-(cyclopropylmethoxy)-3-pyridyl]oxy]-2-oxo-pyrrolidin-1-yl]-4-fluoro-1-oxo-isoindolin-2-yl]-N,N-dimethyl-acetamide], for which the EC50 worked out at 80 nM. On to `O=C(CN1Cc2c(F)cc(N3CC[C@@H](Oc4ccc(OCCC5CC5)nc4)C3=O)cc2C1=O)N1CCCC1` [Example 4-26, 6-[(3R)-3-[[6-(2-cyclopropylethoxy)-3-pyridyl]oxy]-2-oxo-pyrrolidin-1-yl]-4-fluoro-2-(2-oxo-2-pyrrolidin-1-yl-ethyl)isoindolin-1-one], for which the EC50 amounted to 48 nM. For the compound `CN(C)C(=O)CN1Cc2c(F)cc(N3CC[C@@H](Oc4ccc(OCCC5CC5)nc4)C3=O)cc2C1=O` [Example 4-27, 2-[6-[(3R)-3-[[6-(2-cyclopropylethoxy)-3-pyridyl]oxy]-2-oxo-pyrrolidin-1-yl]-4-fluoro-1-oxo-isoindolin-2-yl]-N,N-dimethyl-acetamide], the EC50 was determined as 46 nM.

Regarding `CNC(=O)CN1Cc2c(F)cc(N3CC[C@@H](Oc4ccc(OCCC5CC5)nc4)C3=O)cc2C1=O` [Example 4-28, 2-[6-[(3R)-3-[[6-(2-cyclopropylethoxy)-3-pyridyl]oxy]-2-oxo-pyrrolidin-1-yl]-4-fluoro-1-oxo-isoindolin-2-yl]-N-methyl-acetamide], the EC50 amounted to 49 nM. To `O=C(CN1Cc2c(F)cc(N3CC[C@@H](Oc4ccc(OCCC5CC5)nc4)C3=O)cc2C1=O)NCCO` [Example 4-29, 2-[6-[(3R)-3-[[6-(2-cyclopropylethoxy)-3-pyridyl]oxy]-2-oxo-pyrrolidin-1-yl]-4-fluoro-1-oxo-isoindolin-2-yl]-N-(2-hydroxyethyl)acetamide] belongs 157 nM; to `O=C(CN1Cc2ccc(N3CC[C@@H](Oc4ccc(OCC5CC5)nc4)C3=O)cc2C1=O)NCc1nnn[nH]1` [Example 4-30, 2-[6-[(3R)-3-[[6-(cyclopropylmethoxy)-3-pyridyl]oxy]-2-oxo-pyrrolidin-1-yl]-1-oxo-isoindolin-2-yl]-N-(1H-tetrazol-5-ylmethyl)acetamide], 749 nM; to `COC(=O)CNC(=O)CN1Cc2ccc(N3CC[C@@H](Oc4ccc(OCC5CC5)nc4)C3=O)cc2C1=O` [Example 4-31, methyl 2-[[2-[6-[(3R)-3-[[6-(cyclopropylmethoxy)-3-pyridyl]oxy]-2-oxo-pyrrolidin-1-yl]-1-oxo-isoindolin-2-yl]acetyl]amino]acetate], 153 nM. Turning to `O=C(CN1Cc2ccc(N3CC[C@@H](Oc4ccc(OCC5CC5)nc4)C3=O)cc2C1=O)NC(CO)CO` [Example 4-32, 2-[6-[(3R)-3-[[6-(cyclopropylmethoxy)-3-pyridyl]oxy]-2-oxo-pyrrolidin-1-yl]-1-oxo-isoindolin-2-yl]-N-[2-hydroxy-1-(hydroxymethyl)ethyl]acetamide], the concentration for a half-maximal effect (EC50) was 448 nM. Turning to `O=C(CN1Cc2ccc(N3CC[C@@H](Oc4ccc(OCC5CC5)nc4)C3=O)cc2C1=O)N(CCO)CCO` [Example 4-33, 2-[6-[(3R)-3-[[6-(cyclopropylmethoxy)-3-pyridyl]oxy]-2-oxo-pyrrolidin-1-yl]-1-oxo-isoindolin-2-yl]-N,N-bis(2-hydroxyethyl)acetamide], the EC50 worked out at 598 nM. For `O=C(CN1Cc2ccc(N3CC[C@@H](Oc4ccc(OCC5CC5)nc4)C3=O)cc2C1=O)NC[C@H](O)CO` [Example 4-34, 2-[6-[(3R)-3-[[6-(cyclopropylmethoxy)-3-pyridyl]oxy]-2-oxo-pyrrolidin-1-yl]-1-oxo-isoindolin-2-yl]-N-[(2S)-2,3-dihydroxypropyl]acetamide], the EC50 came out at 541 nM. For the compound `O=C(CN1Cc2ccc(N3CC[C@@H](Oc4ccc(OCC5CC5)nc4)C3=O)cc2C1=O)NC[C@@H](O)CO` [Example 4-35, 2-[6-[(3R)-3-[[6-(cyclopropylmethoxy)-3-pyridyl]oxy]-2-oxo-pyrrolidin-1-yl]-1-oxo-isoindolin-2-yl]-N-[(2R)-2,3-dihydroxypropyl]acetamide], the 50% effective concentration (EC50) amounted to 556 nM. With `O=C(CN1Cc2ccc(N3CC[C@@H](Oc4ccc(OCC(F)(F)F)nc4)C3=O)cc2C1=O)NC1CC1` [Example 4-36, N-cyclopropyl-2-[1-oxo-6-[(3R)-2-oxo-3-[[6-(2,2,2-trifluoroethoxy)-3-pyridyl]oxy]pyrrolidin-1-yl]isoindolin-2-yl]acetamide], the EC50 turned out to be 562 nM.

On to `CC(C)NC(=O)CN1Cc2ccc(N3CC[C@@H](Oc4ccc(OCC(F)(F)F)nc4)C3=O)cc2C1=O` [Example 4-37, N-isopropyl-2-[1-oxo-6-[(3R)-2-oxo-3-[[6-(2,2,2-trifluoroethoxy)-3-pyridyl]oxy]pyrrolidin-1-yl]isoindolin-2-yl]acetamide], for which the EC50 turned out to be 232 nM. On to `CNC(=O)CN1Cc2ccc(N3CC[C@@H](Oc4ccc(OCC(F)(F)F)nc4)C3=O)cc2C1=O` [Example 4-38, N-methyl-2-[1-oxo-6-[(3R)-2-oxo-3-[[6-(2,2,2-trifluoroethoxy)-3-pyridyl]oxy]pyrrolidin-1-yl]isoindolin-2-yl]acetamide], for which the EC50 came to 131 nM. Regarding `CCNC(=O)CN1Cc2ccc(N3CC[C@@H](Oc4ccc(OCC(F)(F)F)nc4)C3=O)cc2C1=O` [Example 4-39, N-ethyl-2-[1-oxo-6-[(3R)-2-oxo-3-[[6-(2,2,2-trifluoroethoxy)-3-pyridyl]oxy]pyrrolidin-1-yl]isoindolin-2-yl]acetamide], the EC50 was determined as 205 nM.

As to `O=C(CN1Cc2ccc(N3CC[C@@H](Oc4ccc(OCC(F)(F)F)nc4)C3=O)cc2C1=O)N1CCCC1` [Example 4-40, 2-(2-oxo-2-pyrrolidin-1-yl-ethyl)-6-[(3R)-2-oxo-3-[[6-(2,2,2-trifluoroethoxy)-3-pyridyl]oxy]pyrrolidin-1-yl]isoindolin-1-one], the half-maximal effective concentration (EC50) was 43 nM.
